# Measured values reported in patent publication US8263610B2, “Substituted imidazolyl-5,6-dihydrobenzo[N]isoquinoline compounds” (ArQule, Inc., priority 2008, dated 2012).
# Where a name gives a salt, the structure may show the parent alone.
row,Structure (SMILES),melting point
1,O=S(=O)(c1ccccc1)N1CCc2c(cnc3[nH]ncc23)C1,270 to 271 °C
2,S=C(Nc1ccccc1)N1CCc2c(cnc3[nH]ncc23)C1,200 to 202 °C
3,COc1ccc(CN2CCc3c(cnc4c3cnn4Cc3ccc(OC)cc3)C2)cc1,105 to 107 °C
4,O=C(Nc1ccccc1)NC1CCc2c(cnc3[nH]ncc23)C1 (centres unmarked),> 216 °C
5,O=C(Nc1ccccc1)C1CCc2c(cnc3[nH]ncc23)C1 (centres unmarked),> 300 °C
6,COc1ccc(Cn2ncc3c4c(cnc32)CNCC4)cc1,96 to 102 °C
7,O=C(O)C(F)(F)F.c1nc2[nH]ncc2c2c1CNCC2,224 to 227 °C
8,Cl.c1ccc(-c2n[nH]c3ncc4c(c23)CCNC4)cc1,265 °C (dec.)
9,O=C(C(NCCO)c1ccccc1)N1CCc2c(cnc3[nH]nc(Br)c23)C1.O=C(O)C(F)(F)F (centres unmarked),> 115 °C
10,Cl.O=C(C(c1ccccc1)N1CCNCC1)N1CCc2c(cnc3[nH]nc(Br)c23)C1 (centres unmarked),> 245 °C
11,N[C@H](C(=O)N1CCc2c(cnc3[nH]ncc23)C1)c1ccccc1.O=C(O)C(F)(F)F,> 100 °C
12,c1ccc(CNC2CCc3c(cnc4[nH]ncc34)C2)cc1 (centres unmarked) (as salt: TFA),> 232 °C
13,"Clc1ccccc1C1Cc2cnc3[nH]nc(-c4cnn(C5CCNCC5)c4)c3c2-c2ccccc21 (centres unmarked) (as salt: TFA) [Example 19, 7-(2-chlorophenyl)-1-(1-piperidin-4-yl-1H-pyrazol-4-yl)-6,7-dihydro-3H-benzo[f]pyrazolo[3,4-c]isoquinoline]",> 225 °C
14,"O=C(C(NCCc1c[nH]c2ccccc12)c1ccccc1)N1CCc2c(cnc3[nH]ncc23)C1 (centres unmarked) (as salt: TFA) [Example 84, N-(2-(1H-indol-3-yl)ethyl)-2-(8,9-dihydro-3H-pyrazolo[3,4-c][2,7]naphthyridin-7(6H)-yl)-2-oxo-1-phenylethanaminium 2,2,2-trifluoroacetate]",> 164 °C
15,"CN(C)CCNC(=O)c1cccc(NC(=O)N2CCc3c(cnc4[nH]ncc34)C2)c1 (as salt: TFA) [Example 95, N-(3-(2-(dimethylamino)ethylcarbamoyl)phenyl)-8,9-dihydro-3H-pyrazolo[3,4-c][2,7]naphthyridine-7(6H)-carboxamide]",184 to 196 °C
16,"O=C(NCc1ccccc1)c1cccc(NC(=O)N2CCc3c(cnc4[nH]ncc34)C2)c1 (as salt: TFA) [Example 96, N-[3-(benzylcarbamoyl)phenyl]-3,6,8,9-tetrahydro-7H-pyrazolo[3,4-c][2,7]naphthyridine-7-carboxamide]",> 135 °C
17,"O=C(c1ccccc1)c1c[nH]c2ncnc(N3CCc4c(cnc5[nH]ncc45)C3)c12 (as salt: TFA) [Example 435, (4-(8,9-dihydro-3H-pyrazolo[3,4-c][2,7]naphthyridin-7(6H)-yl)-7H-pyrrolo[2,3-d]pyrimidin-5-yl)(phenyl)methanone]",300 to 302 °C
18,O=C(Nc1ccccc1)N1CCc2c(cnc3[nH]nc(C4=CCNCC4)c23)C1 (as salt: chloride),230 to 231 °C
19,NC(=O)c1cccc(-c2n[nH]c3ncc4c(c23)CCNC4)c1 (as salt: trifluoroacetate),240 °C (dec.)
20,"CC(=O)Nc1cccc(-c2n[nH]c3ncc4c(c23)CCNC4)c1 (as salt: trifluoroacetate) [Example 456, 1-(3-acetamidophenyl)-6,7,8,9-tetrahydro-3H-pyrazolo[3,4-c][2,7]naphthyridin-7-ium 2,2,2-trifluoroacetate]",245 °C (dec.)
21,"COc1ccc(Cn2ncc3c4c(cnc32)CC(NC(=O)c2ccccc2)CC4)cc1 (centres unmarked) [Compound 5, N-[3-(4-methoxybenzyl)-6,7,8,9-tetrahydro-3H-pyrazolo[3,4-c]isoquinolin-7-yl]benzamide]",> 65 °C
22,"COc1ccc(Cn2ncc3c4c(cnc32)CN(S(=O)(=O)c2ccccc2)CC4)cc1 [Compound 6, 3-(4-methoxybenzyl)-7-(phenylsulfonyl)-6,7,8,9-tetrahydro-3H-pyrazolo[3,4-c][2,7]naphthyridine]",136 to 138 °C
23,"Clc1ccc(C2Cc3cnc4[nH]ncc4c3-c3ccccc32)cc1Cl (centres unmarked) [Example 1, 7-(3,4-dichlorophenyl)-6,7-dihydro-3H-benzo[f]pyrazolo[3,4-c]isoquinoline]",168 to 170 °C
24,"c1ccc(C2Cc3cnc4[nH]ncc4c3-c3ccccc32)cc1 (centres unmarked) [Example 2, 7-phenyl-6,7-dihydro-3H-benzo[f]pyrazolo[3,4-c]isoquinoline]",143 to 145 °C

row,Structure (SMILES),melting point
1,"Fc1ccc(C2Cc3cnc4[nH]ncc4c3-c3ccccc32)cc1F (centres unmarked) [Example 3, 7-(3,4-difluorophenyl)-6,7-dihydro-3H-benzo[f]pyrazolo[3,4-c]isoquinoline]",195 to 196 °C
2,"Clc1ccccc1C1Cc2cnc3[nH]ncc3c2-c2ccccc21 (centres unmarked) [Example 5, 7-(2-dichlorophenyl)-6,7-dihydro-3H-benzo[f]pyrazolo[3,4-c]isoquinoline]",88 to 91 °C
3,"Fc1ccc(C2Cc3cnc4[nH]ncc4c3-c3ccccc32)cc1 (centres unmarked) [Example 6, 7-(4-fluorophenyl)-6,7-dihydro-3H-benzo[f]pyrazolo[3,4-c]isoquinoline]",167 to 169 °C
4,"Cc1cc(C)c2c(c1)-c1c(cnc3[nH]ncc13)CC2 [Example 7, 8,10-dimethyl-6,7-dihydro-3H-benzo[f]pyrazolo[3,4-c]isoquinoline]",152 to 155 °C
5,"COc1cccc2c1CCc1cnc3[nH]ncc3c1-2 [Example 8, 8-methoxy-6,7-dihydro-3H-benzo[f]pyrazolo[3,4-c]isoquinoline]",85 to 89 °C
6,"COc1ccc2c(c1)-c1c(cnc3[nH]ncc13)CC2 [Example 9, 10-methoxy-6,7-dihydro-3H-benzo[f]pyrazolo[3,4-c]isoquinoline]",95 to 97 °C
7,"c1cnc2c(c1)CCc1cnc3[nH]ncc3c1-2 [Example 10, 6,9-dihydro-5H-pyrazolo[3,4-k][1,8]phenanthroline]",263 to 265 °C
8,"O=[N+]([O-])c1ccc2c(c1)-c1c(cnc3[nH]ncc13)CC2 [Example 14, 10-nitro-6,7-dihydro-3H-benzo[f]pyrazolo[3,4-c]isoquino line]",214 to 217 °C
9,"O=c1ccc2c([nH]1)CCc1cnc3[nH]ncc3c1-2 [Example 15, 6,7-dihydro-3H-pyrazolo[4,3-a][3,7]phenanthrolin-9(8H)-one]",290 to 296 °C
10,"Brc1n[nH]c2ncc3c(c12)-c1ccccc1C(c1ccccc1)C3 (centres unmarked) [Example 16, 1-bromo-7-phenyl-6,7-dihydro-3H-benzo[f]pyrazolo[3,4-c]isoquinoline]",176 to 178 °C
11,"CC(C)(C)OC(=O)N1CCC(n2cc(-c3n[nH]c4ncc5c(c34)-c3ccccc3C(c3ccccc3Cl)C5)cn2)CC1 (centres unmarked) [Example 18, tert-butyl 4-(4-(7-(2-chlorophenyl)-6,7-dihydro-3H-benzo[f]pyrazolo[3,4-c]isoquinolin-1-yl)-1H-pyrazol-1-yl)piperidine-1-carboxylate]",139 to 141 °C
12,"c1ccc2c(c1)NCCc1cnc3[nH]ncc3c1-2 [Example 29, 3,6,7,8-tetrahydropyrazolo[4′,3′:5,6]pyrido[3,4-d][1]benzazepine]",215 to 217 °C
13,"CC(C)(C)OC(=O)N1CCc2c(cnc3[nH]ncc23)C1 [Example 76, tert-butyl 8,9-dihydro-3H-pyrazolo[3,4-c][2,7]naphthyridine-7(6H)-carboxylate]",> 70 °C
14,"CC(C)(C)OC(=O)N1CCc2c(cnc3[nH]nc(Br)c23)C1 [Example 77, tert-butyl 1-bromo-8,9-dihydro-3H-pyrazolo[3,4-c][2,7]naphthyridine-7(6H)-carboxylate]",> 65 °C
15,"CC(C)(C)OC(=O)N1CCN(C(C(=O)N2CCc3c(cnc4[nH]nc(Br)c34)C2)c2ccccc2)CC1 (centres unmarked) [Example 91, tert-butyl 4-(2-(1-bromo-8,9-dihydro-3H-pyrazolo[3,4-c][2,7]naphthyridin-7(6H)-yl)-2-oxo-1-phenylethyl)piperazine-1-carboxylate]",159 to 161 °C
16,"O=C(O)c1cccc(NC(=O)N2CCc3c(cnc4[nH]ncc34)C2)c1 [Example 93b, 3-(6,7,8,9-tetrahydro-3H-pyrazolo[3,4-c][2,7]naphthyridine-7-carboxamido)benzoic acid]",237 to 241 °C
17,"O=C(Nc1cccc(C(=O)N2CCC(n3c(=O)[nH]c4ccccc43)CC2)c1)N1CCc2c(cnc3[nH]ncc23)C1 [Example 94, N-(3-(4-(2-oxo-2,3-dihydro-1H-benzo[d]imidazol-1-yl)piperidine-1-carbonyl)phenyl)-8,9-dihydro-3H-pyrazolo[3,4-c][2,7]naphthyridine-7(6H)-carboxamide]",> 215 °C
18,"COc1ccc(Cn2ncc3c4c(cnc32)CN(C(=O)Nc2cccc(C(=O)O)c2)CC4)cc1 [Example 153, 3-(3-(4-methoxybenzyl)-6,7,8,9-tetrahydro-3H-pyrazolo[3,4-c][2,7]naphthyridine-7-carboxamido)benzoic acid]",> 136 °C
19,"O=S(=O)(NC1CCc2c(cnc3[nH]ncc23)C1)c1ccccc1 (centres unmarked) [Example 158, N-(6,7,8,9-tetrahydro-3H-pyrazolo[3,4-c]isoquinolin-7-yl)benzenesulfonamide]",228 to 229 °C
20,"O=C(Nc1ccccc1)N1CCc2c(cnc3[nH]ncc23)C1 [Example 318, N-phenyl-8,9-dihydro-3H-pyrazolo[3,4-c][2,7]naphthyridine-7(6H)-carboxamide]",184 to 186 °C
21,"O=C(Nc1ccccc1)N1CCc2cnc3[nH]ncc3c2-c2ccccc21 [Example 319, N-phenyl-6,7-dihydropyrazolo[4′,3′:5,6]pyrido[3,4-d][1]benzazepine-8(3H)-carboxamide]",> 140 °C
22,"Cc1nc(-c2cccc(NC(=O)N3CCc4c(cnc5[nH]ncc45)C3)c2)cs1 [Example 401, N-(3-(2-methylthiazol-4-yl)phenyl)-8,9-dihydro-3H-pyrazolo[3,4-c][2,7]naphthyridine-7(6H)-carboxamide]",> 155 °C
23,"Cc1nc(-c2cccc(NC(=O)N3CCc4c(cnc5[nH]nc(Br)c45)C3)c2)cs1 [Example 402, 1-bromo-N-(3-(2-methylthiazol-4-yl)phenyl)-8,9-dihydro-3H-pyrazolo[3,4-c][2,7]naphthyridine-7(6H)-carboxamide]",258 to 261 °C
